SMILES strings stand for the structures.

T1 sequence (Q9T0N8 19-534): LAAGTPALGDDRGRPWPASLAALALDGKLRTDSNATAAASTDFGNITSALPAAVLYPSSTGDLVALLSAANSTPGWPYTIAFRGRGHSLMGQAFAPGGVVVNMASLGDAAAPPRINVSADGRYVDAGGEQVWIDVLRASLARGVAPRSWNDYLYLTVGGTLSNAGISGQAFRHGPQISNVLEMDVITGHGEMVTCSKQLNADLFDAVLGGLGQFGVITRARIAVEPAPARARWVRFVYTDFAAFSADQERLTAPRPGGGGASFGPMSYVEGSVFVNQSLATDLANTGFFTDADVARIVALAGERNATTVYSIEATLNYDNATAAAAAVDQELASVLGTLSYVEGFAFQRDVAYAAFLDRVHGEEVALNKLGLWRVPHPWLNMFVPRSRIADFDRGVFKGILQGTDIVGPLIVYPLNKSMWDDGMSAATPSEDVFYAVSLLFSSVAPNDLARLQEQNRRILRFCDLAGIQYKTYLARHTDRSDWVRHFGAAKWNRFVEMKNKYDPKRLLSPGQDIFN

One test has as its target T1, ZmCKX1 (Zea mays, UniProt Q9T0N8).
T1 construct: made in house; host or cells: Yarrowia lipolytica
Briefly: ZmCKX1 inhibition, PMS/MTT assay. It is filed as biochemical, maize.
Conditions: not given
As to the method:
The IC50 (concentration of a substance that causes 50% inhibition of the enzyme activity) was measured by PMS/MTT assay [phenazine methosulphate/3-(4,5-dimethylthiazol-2-yl)-2,5-diphenyltetrazolium bromide]. The assay was performed in 96-well microtiter plates. Each well contained a reaction mixture with a final concentration of: 0.1 M KH2PO4, pH 7.4, 1 mM MTT, 0.2 mM PMS, tested substance in a concentration range of 0.1 nM - 1 µM and 10 µM N^6-isopentenyladenine (iP) as a substrate. To this reaction mixture 100 µL of medium containing the active enzyme ZmCKX1 was added. The enzyme was produced by the yeast Yarrowia lipolytica and isolated according to the protocol (Kopečný D. et al., 2005, […] 87:1011-1022). The plates were incubated for 30 min at 37 °C and the enzymatic reaction was stopped by the addition of 25 µL of 35% acetic acid. Then, the absorbance at 578 nm was measured on a spectrophotometer, and the absorbance of the sample without the substrate was substracted as a reference value. The IC50 value was determined from the concentration-dependent curves in GraphPad Prism software. The values shown in Table 1 are the average of at least two measurements each performed in three repetitions. […] The substance 3,5DCl-Ph-U is 1-(3,5-dichlorophenyl)-3-phenylurea, which we have been prepared to compare its inhibitory activity with the compounds presented in the present invention. Addition of the amide group to the unsubstituted phenyl ring of this substance gives the compound 2AD-3,5DC, which has 42-fold better inhibitory activity with the ZmCKX1 enzyme than 3,5DCl-Ph-U. F-INCYDE ((2-fluoro-9H-purin-6-yl)-(3-methoxyphenyl)amine), CPPU (1-(2-chloropyridin-4-yl)-3-phenylurea), and DCPPU (1-(2,6-dichloropyridin-4-yl)-3-phenylurea) are substances known in the prior art.
Consider `O=C(Nc1ccccc1)Nc1ccnc(Cl)c1` [CPPU, 1-(2-chloro-4-pyridyl)-3-phenylurea, reference compound], for which the concentration for half-maximal inhibition (IC50) (usually the midpoint of a concentration-inhibition curve) is 18 µM.

Consider `NC(=O)c1ccccc1NC(=O)Nc1cccc(Br)c1` [compound 2, 2-[3-(3-bromophenyl)ureido]benzamide], for which it took 0.34 µM to reach half-maximal inhibition (IC50).

With `NC(=O)c1ccccc1NC(=O)Nc1cc(Br)cc(Br)c1` [compound 7, 2-[3-(3,5-dibromophenyl)ureido]benzamide], the IC50 came to 0.047 µM.

In turn, `NC(=O)c1ccccc1NC(=O)Nc1cc(Cl)cc(Br)c1` [compound 9, 2-[3-(3-bromo-5-chlorophenyl)ureido]benzamide] came in with an IC50 of 0.04 µM.

Turning to `NC(=O)c1ccccc1NC(=O)Nc1cc(Cl)cc(OC(F)(F)F)c1` [compound 11, 2-[3-(3-Chloro-5-trifluoromethoxyphenyl)ureido]benzamide], half-maximal inhibition (IC50) required 0.12 µM.

Consider `NC(=O)c1ccc(F)cc1NC(=O)Nc1cccc(Cl)c1` [compound 12, 2-[3-(3-chlorophenyl)ureido]-4-fluorobenzamide], for which the IC50 was determined as 0.09 µM.

On to `COc1cc(Cl)cc(NC(=O)Nc2cc(Br)ccc2C(N)=O)c1` [compound 20, 4-bromo-2-[3-(3-chloro-5-methoxyphenyl)ureido]benzamide], for which the 50% inhibitory concentration (IC50) was 0.034 µM.

`COc1ccc(C(N)=O)c(NC(=O)Nc2cccc(Br)c2)c1` [compound 23, 2-[3-(3-bromophenyl)ureido]-4-methoxybenzamide]: the 50% inhibitory concentration (IC50) worked out at 0.033 µM.

On to `COc1ccc(C(N)=O)c(NC(=O)Nc2cc(Cl)cc(Br)c2)c1` [compound 25, 2-[3-(3-bromo-5-chlorophenyl)ureido]-4-methoxybenzamide], for which the 50% inhibitory concentration (IC50) was 0.001 µM.

In the case of `NC(=O)c1ccc(OC(F)(F)F)cc1NC(=O)Nc1cccc(Br)c1` [compound 27, 2-[3-(3-bromophenyl)ureido]-4-trifluoromethoxybenzamide], the IC50 came out at 0.007 µM.

Consider `NC(=O)c1ccc(OC(F)(F)F)cc1NC(=O)Nc1cc(Cl)cc(Cl)c1` [compound 28, 2-[3-(3,5-Dichlorophenyl)ureido]-4-trifluoromethoxybenzamide], for which the IC50 came out at 0.001 µM.

`CCNC(=O)c1ccc(Br)cc1NC(=O)Nc1cc(Cl)cc(Cl)c1` [compound 35, 4-Bromo-2-[3-(3,5-dichlorophenyl)ureido]-N-ethylbenzamide] had an IC50 of 0.003 µM.

The same test, now with this note: 10 µM iP as substrate, pH 7.4, 30 min at 37 °C; average of at least two measurements; read-out: IC50 (µM) ZmCKX1.
As to `O=C(Nc1ccccc1)Nc1cc(Cl)cc(Cl)c1` [3,5DCl-Ph-U, 1-(3,5-dichlorophenyl)-3-phenylurea, reference compound], the 50% inhibitory concentration (IC50) was determined as 0.84 µM.

Regarding `O=C(Nc1ccccc1)Nc1cc(Cl)nc(Cl)c1` [DCPPU, 1-(2,6-dichloropyridin-4-yl)-3-phenylurea, reference compound], the IC50 stood at 4.5 µM.

For `COc1cccc(Nc2nc(F)nc3[nH]cnc23)c1` [F-INCYDE, (2-fluoro-9H-purin-6-yl)-(3-methoxyphenyl)amine, reference compound], the IC50 came to 1 µM.

As to `NC(=O)c1ccccc1NC(=O)Nc1cccc(F)c1` [compound 1, 2-[3-(3-fluorophenyl)ureido]benzamide], the half-inhibitory concentration (IC50) amounted to 0.45 µM.

Take `COc1cccc(NC(=O)Nc2ccccc2C(N)=O)c1` [compound 3]: the concentration for half-maximal inhibition (IC50) came out at 0.32 µM.

Consider `NC(=O)c1ccccc1NC(=O)Nc1cccc(OC(F)(F)F)c1` [compound 4], for which the IC50 came to 0.21 µM.

Turning to `NC(=O)c1ccccc1NC(=O)Nc1cc(F)cc(F)c1` [compound 5, 2-[3-(3,5-difluorophenyl)ureido]benzamide], the IC50 stood at 0.16 µM.

Turning to `NC(=O)c1ccccc1NC(=O)Nc1cc(Cl)cc(Cl)c1` [compound 6, 2-[3-(3,5-Dichlorophenyl)ureido]benzamide], the IC50 was 0.022 µM.

With `NC(=O)c1ccccc1NC(=O)Nc1cc(F)cc(Cl)c1` [compound 8, 2-[3-(3-Chloro-5-fluorophenyl)ureido]benzamide], the IC50 turned out to be 0.11 µM.

As to `Cc1cc(Cl)cc(NC(=O)Nc2ccccc2C(N)=O)c1` [compound 10, 2-[3-(3-chloro-5-methylphenyl)ureido]benzamide], the IC50 was determined as 0.07 µM.

Take `NC(=O)c1ccc(F)cc1NC(=O)Nc1cc(Cl)cc(Cl)c1` [compound 13, 2-[3-(3,5-dichlorophenyl)ureido]-4-fluorobenzamide]: the IC50 was found to be 0.018 µM.

On to `COc1cc(Cl)cc(NC(=O)Nc2cc(F)ccc2C(N)=O)c1` [compound 14, 2-[3-(3-chloro-5-methoxyphenyl)ureido]-4-fluorobenzamide], for which the IC50 came out at 0.028 µM.

In the case of `NC(=O)c1ccc(Cl)cc1NC(=O)Nc1cccc(Cl)c1` [compound 15, 4-chloro-2-[3-(3-chlorophenyl)ureido]benzamide], the IC50 was 0.035 µM.

For the molecule `NC(=O)c1ccc(Cl)cc1NC(=O)Nc1cc(Cl)cc(Cl)c1` [compound 16, 4-Chloro-2-[3-(3,5-dichlorophenyl)ureido]benzamide], the IC50 was determined as 0.002 µM.

Regarding `COc1ccc(C(N)=O)c(NC(=O)Nc2cccc(F)c2)c1` [compound 21, 2-[3-(3-fluorophenyl)ureido]-4-methoxybenzamide], the half-maximal inhibitory concentration (IC50) is 0.058 µM.

Take `COc1ccc(C(N)=O)c(NC(=O)Nc2cccc(Cl)c2)c1` [compound 22, 2-[3-(3-chlorophenyl)ureido]-4-methoxybenzamide]: the IC50 was determined as 0.035 µM.

`NC(=O)c1ccc(OC(F)(F)F)cc1NC(=O)Nc1cccc(Cl)c1` [compound 26, 2-[3-(3-chlorophenyl)ureido]-4-trifluoromethoxybenzamide]: the IC50 stood at 0.009 µM.

As for `CNC(=O)c1ccccc1NC(=O)Nc1cc(Cl)cc(Cl)c1` [compound 29, 2-[3-(3,5-dichlorophenyl)ureido]-N-methylbenzamide], the concentration for half-maximal inhibition (IC50) came out at 0.03 µM.

Regarding `CNC(=O)c1ccc(F)cc1NC(=O)Nc1cc(Cl)cc(Cl)c1` [compound 30, 2-[3-(3,5-dichlorophenyl)ureido]-4-fluoro-N-methylbenzamide], the half-inhibitory concentration (IC50) was determined as 0.021 µM.

For `CNC(=O)c1ccc(Cl)cc1NC(=O)Nc1cc(Cl)cc(Cl)c1` [compound 31, 4-chloro-2-[3-(3,5-dichlorophenyl)ureido]-N-methylbenzamide], the IC50 is 0.014 µM.

With `CNC(=O)c1ccc(OC)cc1NC(=O)Nc1cccc(Cl)c1` [compound 33, 2-[3-(3-chlorophenyl)ureido]-4-methoxy-N-methylbenzamide], the 50% inhibitory concentration (IC50) turned out to be 0.006 µM.

For the molecule `CCNC(=O)c1ccccc1NC(=O)Nc1cc(Cl)cc(Cl)c1` [compound 34, 2-[3-(3,5-dichlorophenyl)ureido]-N-ethylbenzamide], the half-inhibitory concentration (IC50) worked out at 0.038 µM.

For the molecule `CCNC(=O)c1ccc(OC)cc1NC(=O)Nc1cccc(Cl)c1` [compound 36, 2-[3-(3-chlorophenyl)ureido]-4-methoxy-N-ethylbenzamide], the 50% inhibitory concentration (IC50) was 0.021 µM.

As to `CCNC(=O)c1ccc(OC)cc1NC(=O)Nc1cc(Cl)cc(Cl)c1` [compound 37, 2-[3-(3,5-dichlorophenyl)ureido]-4-methoxy-N-ethylbenzamide], the IC50 was determined as 0.002 µM.

Turning to `CCNC(=O)c1ccc(OC(F)(F)F)cc1NC(=O)Nc1cc(F)cc(Cl)c1` [compound 38, 2-[3-(3-chloro-5-fluorophenyl)ureido]-4-trifluoromethoxy-N-ethylbenzamide], the IC50 stood at 0.001 µM.

Consider `CCCNC(=O)c1ccccc1NC(=O)Nc1cccc(F)c1` [compound 39, 2-[3-(3-fluorophenyl)ureido]-N-propylbenzamide], for which the half-inhibitory concentration (IC50) came to 0.17 µM.

As to `CCCNC(=O)c1ccccc1NC(=O)Nc1cc(F)cc(F)c1` [compound 40, 2-[3-(3,5-difluorophenyl)ureido]-N-propylbenzamide], the half-inhibitory concentration (IC50) came out at 0.062 µM.

With `CCCNC(=O)c1ccccc1NC(=O)Nc1cc(Cl)cc(Cl)c1` [compound 41, 2-[3-(3,5-dichlorophenyl)ureido]-N-propylbenzamide], the IC50 worked out at 0.03 µM.

Still in this test, the particulars now being: ratio versus 3,5DCl-Ph-U.
With `NC(=O)c1ccccc1NC(=O)Nc1cc(Cl)cc(Cl)c1` [compound 6, 2-[3-(3,5-Dichlorophenyl)ureido]benzamide], the “better inhibitory activity with the ZmCKX1 enzyme than 3,5DCl-Ph-U” value amounted to 42 fold.

Still in this test, the particulars now being: read-out: IC50 (µM) ZmCKX1; 10 µM iP as substrate, pH 7.4, 30 min at 37 °C; average of at least two measurements.
For `NC(=O)c1ccc(Cl)cc1NC(=O)Nc1cc(Cl)cc(Br)c1` [compound 17, 2-[3-(3-bromo-5-chlorophenyl)ureido]-4-chlorobenzamide], the 50% inhibitory concentration (IC50) is 0.001 µM.

`NC(=O)c1ccc(Br)cc1NC(=O)Nc1cccc(Cl)c1` [compound 18, 4-bromo-2-[3-(3-chlorophenyl)ureido]benzamide]: the IC50 amounted to 0.011 µM.

For the molecule `NC(=O)c1ccc(Br)cc1NC(=O)Nc1cc(Cl)cc(Cl)c1` [compound 19, 4-Bromo-2-[3-(3,5-dichlorophenyl)ureido]benzamide], the half-inhibitory concentration (IC50) was found to be 0.001 µM.

`CNC(=O)c1ccc(Br)cc1NC(=O)Nc1cc(Cl)cc(Cl)c1` [compound 32, 4-bromo-2-[3-(3,5-dichlorophenyl)ureido]-N-methylbenzamide]: the IC50 was found to be 0.01 µM.

Regarding `CCCNC(=O)c1ccc(Cl)cc1NC(=O)Nc1cc(F)cc(F)c1` [compound 42, 4-chloro-2-[3-(3,5-difluorophenyl)ureido]-N-propylbenzamide], the IC50 turned out to be 0.022 µM.

(Values after patent publication EP4120837B1, “INHIBITORS OF CYTOKININ OXIDASE DERIVED FROM 2-(3-PHENYLUREIDO)BENZAMIDE, USE THEREOF AND PREPARATIONS CONTAINING THESE DERIVATIVES” (Univerzita Palackého v Olomouci, priority 2020, dated 2021).)
